Values quoted from earlier work, collected in patent US6869622B2, “Composition for improving sleep quality and efficiency, and methods of preparing and using the composition” (Ancile Pharmaceuticals, Inc., priority 1999, dated 2005).
Where two headings read alike, the source gives them in different places.

Key:
[1] = system: enzyme system which catalyses breakdown of GABA in the brain; settings: 1 mmole/liter
mice [2] = settings: 12.5 and 25 mg/kg, IP in mice
mouse = settings: 50 and 100 mg/kg, IP
mice [3] = system: mice
[4] = system: AMES assay and the SOS-chromo-test
mice [5] = settings: 26 mg/kg, IP or PO

SMILES: CC(=O)O[C@@H]1CC(C)=C2[C@H]1[C@H](C)CC[C@H]2/C=C(\C)C(=O)O [acetoxyvalerenic acid, Acetoxyvalerenic Acid]
- Inhibition of enzyme system which catalyses breakdown of GABA [1]: 38%

SMILES: CC1=C2[C@H](/C=C(\C)C(=O)O)CC[C@@H](C)[C@H]2CC1 [valerenic acid, Valerenic Acid]
- Picrotoxin induced convulsions (mice [2]): antagonized
- Inhibition of enzyme system which catalyses breakdown of GABA [1]: 20%
- Pentobarbital induced sleeping time (mouse): potentiate
- Behavioural effects (mice [3]; 100 mg/kg intraperitoneally, mice): decrease in motor activity, a decrease in respiratory rate, absence of righting reflex, ataxia, a decrease of abdominal muscle tone, and a decrease in rotarod performance
- Performance on rotarod and traction tests (mice [3]; 100 mg/kg, IP): statistical significance

SMILES: CC(C)CC(=O)OCc1cocc2c(C=O)ccc1-2 [homobaldrinal]
- Genotoxicity in vitro [4]: direct mutagenic effects

SMILES: CC(=O)OCc1cocc2c(C=O)ccc1-2 [baldrinal]
- Genotoxicity in vitro ([4]; AMES assay and SOS-chromo-test): direct mutagenic effects
- Metabolic degradation of 14C-methacetin (mice [5]): distinctly inhibited
